# Experimental data as given in patent publication US20240358701A1, “PHARMACEUTICAL COMPOSITIONS AND COMBINATIONS COMPRISING INHIBITORS OF THE ANDROGEN RECEPTOR AND USES THEREOF” (ESSA Pharma Inc., priority 2021, published 2024).
# Where two headings read alike, the source gives them in different places.
# What was measured:
# [1] = Phase 1 dose escalation (Example 3): PK evaluation / drug-drug interaction; type: in vivo, human; conditions: for exposure under drug-drug interaction with a concomitant medication (strong CYP3A inducer): discontinued at end of cycle 2; for AUC: human, plasma, oral, 600 mg QD, read-out: AUCss for Compound A
# Procedure: Phase 1 of the study is a single-arm dose escalation study of Compound A in combination with a fixed dose of enzalutamide (120 mg/day). This portion of the study primarily evaluates the safety and tolerability of the drug combination and establishes the RP2CD for Compound A and enzalutamide when dosed in combination. In addition, blood sampling will be conducted for PK evaluation to assess the potential drug-drug interaction (DDI) between the two drugs.
# In the Phase 1 part of the study each dose cohort will receive a 7-day run-in with single agent Compound A to establish steady-state concentrations of this drug at that dose level, followed by 28-day cycles of the combination Compound A with enzalutamide. Subjects may remain on study treatment as long as they are tolerating treatment without disease progression based on Response Evaluation Criteria in Solid Tumors (RECIST) v1.1 or based on Prostate Cancer Working Group 3 (PCWG3) criteria. A 30-day End of Treatment Visit will be conducted 30 days from the date of the last dose.
# For Cohort 1, subjects (n=3) were orally administered 600 mg QD (once a day) of Compound A alone for 7 days then administered 600 mg QD Compound A in combination with 120 mg QD enzalutamide for at least one cycle (e.g., 28 days). Two subjects received the combination of Compound A and enzalutamide for at least 4 cycles (e.g., 16 weeks).
# The plasma concentration data for Compound A, enzalutamide, N-desmethylated enzalutamide (M2; active metabolite) will be analyzed using non-compartmental methods to obtain estimates of standard PK parameters.
# PK parameters of Compound A following multiple dosing including but not limited to plasma area under the concentration-time curve from time zero to 24 hours (AUC0-24), maximum concentration (Cmax), observed pre-dose plasma concentration during multiple dosing (Ctrough), time to reach Cmax (Tmax), apparent terminal elimination half-life (t½; whenever feasible to calculate), apparent volume of distribution at steady state after extravascular administration (Vss/F), apparent clearance after extravascular administration (CL/F).
# PK parameters of enzalutamide and its primary active metabolite following multiple dosing including but not limited to AUC0-24, Cmax, Ctrough, Tmax, t½ (whenever feasible to calculate), Vss/F, CL/F.
# [2] = enzalutamide monotherapy, cited from earlier work
# [3] = Cohort 1: 600 mg QD Compound A + 120 mg QD enzalutamide
"enzalutamide exposure, impact of Compound A administration [1, 3]",Compound,"exposure under drug-drug interaction with a concomitant medication (strong CYP3A inducer) ([1]; Cohort 1, third subject)","Compound A exposure, impact of enzalutamide [1, 3]","AUC ([1]; Cohort 1, first subject, no prior chemotherapy (FIG. 1A)) [ng·h/mL]","AUC ([1]; Cohort 1, second subject, prior chemotherapy (FIG. 1B)) [ng·h/mL]","AUC ([1]; Cohort 1, third subject, prior chemotherapy, concomitant strong CYP3A inducer (FIG. 1C)) [ng·h/mL]",90 day confirmed PSA<0.2 ng/mL rate ([2]; post-chemotherapy population) [%],90 day confirmed PSA<0.2 ng/mL rate ([2]; pre-chemotherapy population) [%]
,"CC(C)(c1ccc(OCc2ccnc(NS(C)(=O)=O)n2)cc1)c1cc(Cl)c(OCCCl)c(C#N)c1 [Compound A, N-(4-((4-(2-(3-chloro-4-(2-chloroethoxy)-5-cyanophenyl)propan-2-yl)phenoxy)methyl)pyrimidin-2-yl)methanesulfonamide]",significant decrease in exposure,impacted by enzalutamide with higher metabolism of Compound A observed,~235000,~62000,~33000,,
only minimally impacted,"CNC(=O)c1ccc(N2C(=S)N(c3ccc(C#N)c(C(F)(F)F)c3)C(=O)C2(C)C)cc1F [enzalutamide, reference compound]",significant decrease in exposure,,,,,1,5
